Test results: article PMC11988817, “Prediction and Prioritisation of Novel Anthelmintic Candidates from Public Databases Using Deep Learning and Available Bioactivity Data Sets” (International Journal of Molecular Sciences, 2025)
Where two headings read alike, the source gives them in different places.

Key:
Haemonchus contortus = settings: cited from earlier work
[1] = test system: exsheathed third-stage larvae (xL3s) of H. contortus; experiment: xL3 larval development (to L4) assay; set-up: species or system Haemonchus contortus; settings: for IC50: Haemonchus contortus, read-out: Larval Development IC50
Experimental: (§1) The prioritised compounds were purchased from MolPort and evaluated for their activity by estimating their IC50 values and MMIs against xL3s of H. contortus (Haecon-5 strain) using an established method. In brief, xL3s were dispensed in 96-well plates (cat. no. 3596; Corning, Corning, NY, USA) at a density of 300 xL3s per well with individual, serially diluted compounds (9-points; 2-fold serial dilution; 50 µM to […]), in a final volume of 100 µL of LB* (= sterile lysogenic broth [LB] supplemented with 100 IU/mL penicillin, 100 µg/mL streptomycin and 0.25 µg/mL amphotericin B [Fungizone®, Thermo Fisher Scientific, Waltham, MA, USA]). Plates containing xL3s were incubated at 38 °C, 10% (v/v) CO2 and >90% relative humidity. Following 168 h of incubation, the compounds were tested by three independent experiments in triplicate. The xL3s motility and development to fourth-stage larvae (L4s) were measured with reference to two commercial anthelmintics, monepantel (Zolvix^TM; Elanco, Greenfield, IN, USA) and moxidectin (Cydectin®; Virbac, Carros, France). Negative control wells containing 0.25% (v/v) DMSO were present on all plates. […] Compound concentrations were log10-transformed and fitted using a variable slope four-parameter equation, constraining the highest value to 100% and employing a least squares (ordinary) fit model as implemented in GraphPad Prism software (v.10.0.1). A one-way analysis of variance (ANOVA) with a Dunnett’s multiple comparison test was used to establish statistically significant differences in larval motility and in development.

[2] = HepG2 cytotoxicity (CellTiter-Glo); type: cell-based; settings: human
Experimental: The cytotoxicity of the prioritised compounds 3, 4 and 6 on human hepatoma (HepG2) cells was evaluated as described previously. In brief, HepG2 cells were first cultured (in an incubator at 5% (v/v) CO2, 37 °C and >90% humidity) in Dulbecco’s modified Eagle’s medium (DMEM), supplemented with 5% (v/v) foetal bovine serum (FBS). The test compounds were serially diluted (10-points; 2-fold serial dilution; top concentration of 50 μM) in DMEM plus 10% (v/v) FBS, adjusted to a DMSO concentration of 0.5% (v/v) and arrayed across a 384-well plate. Bortezomib (10 μM) was used as a positive control, and 0.5% DMSO was used as a negative control. HepG2 cells (1 × 10^3 cells per 50 μL of DMEM plus 10% FBS) were then seeded into wells of the assay plate; the plates were then incubated in 5% (v/v) CO2, 37 °C and >90% humidity for 48 h. Subsequently, cell proliferation was assessed using CellTiter-Glo (Promega, Fitchburg, WI, USA) and normalised against the negative controls and expressed as a percentage. All compounds were tested in duplicate. The half-maximal cytotoxic (CC50) values were calculated using the software Dotmatics (v.5.3) and Spotfire (v.7.11.1) employing a non-linear regression four-parameter fit analysis.

[3] = test system: exsheathed third-stage larvae (xL3s) of H. contortus; experiment: xL3 larval motility dose-response assay; set-up: species or system Haemonchus contortus; settings: 168 h; for inhibition of xL3 motility (in words): dose-response up to 50 µM; for IC50: read-out: Larval Motility IC50
Experimental: as §1

[4] = test system: exsheathed third-stage larvae (xL3s) of H. contortus; experiment: abnormal larval phenotype / worm morphology assessment; set-up: species or system Haemonchus contortus; key to Abnormal Phenotype: curved (Cur); evisceration (Evi); coiled (Coi); settings: 168 h; for Abnormal Phenotype: exhibited at 50 µM
Experimental: as §1

[5] = test system: adult males of H. contortus; experiment: adult male motility time-course assay; set-up: species or system Haemonchus contortus; settings: 50 µM
Experimental: (§2) Subsequently, the selected compounds evaluated for in vitro activity against larvae were further assessed for their activity against adult females and males of H. contortus using an established motility assay. In brief, the compound was dispensed in 24-well plates (cat. no. 3524; Corning) at a concentration of 50 μM in 500 μL of RPMI* (RPMI 1640 medium supplemented with 4 mM L-glutamine, 100 U/mL penicillin, 100 µg/mL streptomycin and 0.25 µg/mL amphotericin B). Two positive controls, monepantel and moxidectin, were each prepared in the same manner, and a negative control containing 0.25% (v/v) DMSO was included on all plates. Three adult females or males were added to each of the wells containing either the test compound or a control compound and then incubated at 38 °C, 10% (v/v) CO2 and >90% relative humidity for 24 h. The compounds were tested in triplicate. A video recording (30 sec) of each well was taken at 0 h, 3 h, 6 h, 12 h and 24 h during the entire incubation period to assess the reduction in worm motility—scored as 3 (‘good’), 2 (‘low’), 1 (‘very low’) or 0 (‘none’). For each test or control compound, the motility scores for each of the triplicate wells were calculated, normalised with reference to the negative control (100% motility), and recorded as a percentage. A two-way ANOVA with Dunnett’s multiple comparison test was used to establish statistically significant differences against the DMSO control in worm motility for each time point.

[6] = test system: adult females of H. contortus; experiment: adult female motility time-course assay; set-up: species or system Haemonchus contortus; settings: 50 µM
Experimental: as §2

[7] = Haemonchus contortus, xL3s, at 50 µM, read-out: Larval motility maximal inhibition (MI; MMI) (converted)
[8] = Haemonchus contortus, xL3s, 168 h of exposure, three independent assays in triplicate

Structure (SMILES) | IC50 ([1]; xL3s, 168 h of exposure) [µM] | inhibition at 50 µM [3, 7] [%] | IC50 [3, 8] [µM] | Larvae with abnormal phenotype (exhibited at 50 µM) [4] [%] | Abnormal Phenotype [4] | motility reduction, adult males, 24 h [5] [%] | motility reduction, adult females, 24 h [6] [%] | further results
COc1ccc(-c2cnc3c(n2)CCCC3)cc1C#N [APDB C798] |  |  |  |  |  |  |  | antiparasitic activity (in words) (Haemonchus contortus; tetrahydroquinoxalines): antiparasitic activity was observed
CC(C)Oc1cccc(-c2cnc3c(n2)CCCC3)c1 [APDB C802] |  |  |  |  |  |  |  | antiparasitic activity (in words) (Haemonchus contortus; tetrahydroquinoxalines): antiparasitic activity was observed
CC(C#N)(COc1cc(C#N)ccc1C(F)(F)F)NC(=O)c1ccc(OC(F)(F)F)cc1 (stereo not shown) [APDB C823] |  |  |  |  |  |  |  | antiparasitic activity (in words) (Haemonchus contortus): possess antiparasitic activity
COc1ccc(-c2cncc(C#N)n2)cc1OC [Compound 3, 6-(3,4-Dimethoxyphenyl)pyrazine-2-carbonitrile] | 37.1 | 54 | 7.9 ± 1.9 | 80 | Evi |  |  | Larval development maximal inhibition (MI) ([1]; xL3s, 168 h of exposure): 100%; CC50 at 48 h ([2]; HepG2 cells (human hepatoma)): > 40 µM; inhibition of xL3 motility (in words) [3]: inhibition of H. contortus motility was only observed; altered worm morphology / abnormal phenotype (in words) [4]: induced an abnormal phenotype
c1ccc(-c2cnc3ccccc3n2)cc1 [Compound 4, 2-Phenylquinoxaline] |  |  |  |  | nil | 50 | 40 | IC50 ([1]; 168 h): > 50 µM; CC50 at 48 h ([2]; HepG2 cells): > 40 µM; IC50 ([3]; Haemonchus contortus): 5.8 ± 4.1 µM
N#Cc1ccc(OCc2cccc(F)c2)cc1 [Compound 6, 4-[(3-Fluorophenyl)methoxy]benzonitrile] | 23.6 | 100 | 7.4 ± 9.4 | 100 | Evi | 100 | 75 | CC50 at 48 h ([2]; HepG2 cells (human hepatoma)): > 40 µM; inhibition of xL3 motility (in words) [3]: inhibition of H. contortus motility was only observed; motility reduction, adult males, 6 h [5]: 50%; motility reduction, adult males, 12 h [5]: 75%; effect on adult male motility (in words) ([5]; within 24 h): complete immobilisation; motility reduction, adult females, 6 h [6]: 33%; motility reduction, adult females, 12 h [6]: 50%; effect on adult female motility (in words) ([6]; within 24 h): significant reduction in the motility
CC(C)(CO)NCC#Cc1ccccc1 [Compound 10, 2-Methyl-2-[(3-phenylprop-2-yn-1-yl)amino]propan-1-ol] | > 50 | 50 | 0.8 ± 1.2 |  | nil |  | 40 | 
C[C@](C#N)(COc1cc(C#N)ccc1C(F)(F)F)NC(=O)c1ccc(SC(F)(F)F)cc1 [Monepantel, N-[(2S)-2-cyano-1-[5-cyano-2-(trifluoromethyl)phenoxy]propan-2-yl]-4-(trifluoromethylsulfanyl)benzamide, reference compound] | 0.4 |  | 0.2 ± 0.002 | 100 | Coi | 100 | 67 | inhibition at up to 50 µM [3, 7]: 100%; motility reduction, adult males, 6 h [5]: 67%; motility reduction, adult males, 12 h [5]: 67%; motility reduction, adult females, 6 h [6]: 67%; motility reduction, adult females, 12 h [6]: 67%
